What was measured:
[1] = system: chick embryos given CoCl2; experiment: CoCl2 ischemia / hypoxia study, embryo survival; type: in vivo, Gallus gallus domesticus; conditions: CoCl2 hexahydrate 1.2 mg, 0.54 M
chick embryos = experiment: Embryo survival after dosing on the CAM
[2] = system: chick chorioallantoic membrane (CAM) vasculature; experiment: Chick chorioallantoic membrane; type: in vivo, Gallus gallus domesticus; conditions: 0.75 mg/kg (18.87 µM; antibody 1 mg/mL), n = 2-3, 24 h

Molecule: O.O.O.O.O.O.[Cl-].[Cl-].[Co+2] [CoCl2, CoCl2 hexahydrate]
- mortality of embryos treated only with CoCl2 ([1]; 32× LD50, 12 h, n = 4): 100%
- mortality of embryos treated only with CoCl2 ([1]; 32× LD50, 24 h, n = 8): 100%

Molecule: COC(=O)N[C@@H](Cc1ccccc1)C(=O)N[C@@H](Cc1ccc(NS(=O)(=O)O)cc1)c1csc(-c2cccs2)n1 [Razuprotafib]
- embryo survival (chick embryos; dosed at 400 μM, n = 2): 50%
- lethality, embryos dead / embryos tested (chick embryos; dosed at 40 mM on the CAM): 7/8

B1: Ang-1: human Ang-1 protein (Gibco) (protein, UniProt Q15389 16-498, looked up)
Angiopoietin-1: HIGCSNQRRSPENSGRRYNRIQHGQCAYTFILPEHDGNCRESTTDQYNTNALQRDAPHVEPDFSSQKLQHLEHVMENYTQWLQKLENYIVENMKSEMAQIQQNAVQNHTATMLEIGTSLLSQTAEQTRKLTDVETQVLNQTSRLEIQLLENSLSTYKLEKQLLQQTNEILKIHEKNSLLEHKILEMEGKHKEELDTLKEEKENLQGLVTRQTYIIQELEKQLNRATTNNSVLQKQQLELMDTVHNLVNLCTKEGVLLKGGKREEEKPFRDCADVYQAGFNKSGIYTIYINNMPEPKKVFCNMDVNGGGWTVIQHREDGSLDFQRGWKEYKMGFGNPSGEYWLGNEFIFAITSQRQYMLRIELMDWEGNRAYSQYDRFHIGNEKQNYRLYLKGHTGTAGKQSSLILHGADFSTKDADNDNCMCKCALMLTGGWWFDACGPSNLNGMFYTAGQNHGKLNGIKWHYFKGPSYSLRSTTMMIRPLDF
- whether CAM results recapitulate those of KU04212, in words [2]: None of these agents gave results consistent with KU04212

Source: PMC11522928 (JACS Au, 2024)
